Measurements from article PMC12349913 (Biological & pharmaceutical bulletin, 2024).

Biological target: full-length Plk1 (Homo sapiens, UniProt P53350)
Assay: Fluorescence polarization
Conditions: FP assay, serially diluted full-length protein

Sequence of full-length Plk1 (P53350 whole entry): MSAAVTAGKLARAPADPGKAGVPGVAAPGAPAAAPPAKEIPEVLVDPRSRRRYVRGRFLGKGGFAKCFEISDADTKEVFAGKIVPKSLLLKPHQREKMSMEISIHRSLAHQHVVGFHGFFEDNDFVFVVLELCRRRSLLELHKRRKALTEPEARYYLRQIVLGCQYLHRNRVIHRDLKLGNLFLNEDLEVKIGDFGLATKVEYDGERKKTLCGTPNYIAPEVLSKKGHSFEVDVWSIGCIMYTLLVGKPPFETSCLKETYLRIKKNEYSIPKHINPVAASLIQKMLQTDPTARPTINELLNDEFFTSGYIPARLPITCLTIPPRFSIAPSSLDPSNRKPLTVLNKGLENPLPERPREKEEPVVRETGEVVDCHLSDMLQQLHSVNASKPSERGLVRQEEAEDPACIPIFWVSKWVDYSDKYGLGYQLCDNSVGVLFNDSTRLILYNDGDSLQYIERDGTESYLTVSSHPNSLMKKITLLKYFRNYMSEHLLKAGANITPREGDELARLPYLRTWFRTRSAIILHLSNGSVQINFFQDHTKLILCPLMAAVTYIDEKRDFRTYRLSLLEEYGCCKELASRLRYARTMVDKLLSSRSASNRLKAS

Substance: 5-carboxyfluorescein (5CF)-GPMQSpTPLNG-NH2 [5CF-GPMQSpTPLNG-NH2]
- FP signal response to full-length Plk1: did not show significant FP signal enhancement
